This note sets out measurements from patent US11890318B2, “Methods and compositions for modulating appetite and intake of sodium” (California Institute of Technology, priority 2019, dated 2024).

Molecules are shown by their SMILES. Entries after “also recorded” stand apart in the source; their conditions may differ.

In test [1] the test system is pre-LC^PDYN neurons. In words: Fibre photometry recording of GCaMP6s signals from pre-LC^PDYN neurons during ingestion or IG infusion. Type of test: in vivo, mice. How it is done: For photometry recording, animals were given either 5- or 10-minutes access to stimuli. To examine sodium specific responses of pre-LC^PDYN neurons (FIGS. 3D, 3E), animals were presented with three solutions during the session. First, animals were given 5 min access to 0.5 M KCl (FIG. 3D) or 0.5 M NaCl+0.1 mM amiloride (FIG. 3E). Then animals had 5 min access to water. Finally, animals were given 5 min access to 0.5 M NaCl. The interval between trials was 5 min. In FIG. 4B, 0.5 M NaCl, deionized water, or glucose solution (5 M) was infused via an intragastric catheter. Solutions were delivered at 0.1 ml/min for 5 min (water and sodium) or 10 min (food) using an infusion syringe pump (NE-300, New Era Pump Systems Inc). 10 min after gastric infusion, animals were given access to nutrients and their consumption was quantified for 10 min (for water and 0.5 M NaCl), or 30 min (for normal chow). Either air infusion (for water), or water infusion (for sodium and food) was used as a control stimulus. In FIG. 4D, either 0.15 M NaCl, water, or air was infused at a rate of 0.1 ml/min while recording the neural activity by photometry. For control, oral ingestion (FIG. 4C), the same set of animals were given access to 0.15 M NaCl. For all photometry assays, animals were acclimatized for 10-15 min in the chamber before stimuli were presented. Bulk fluorescence signals were collected using fibre photometry as previously described. Briefly, data were extracted and subjected to a low-pass filter at 1.8 Hz. A linear function was used to scale up the 405-nm channel signal to the 490-nm channel signal to obtain the fitted 405-nm signal. The resultant ΔF/F was calculated as (raw 490 nm signal−fitted 405 nm signal)/(fitted 405 nm signal). ΔF/F was then time-binned by a factor of 2.5 times the sampling frequency and down-sampled to 10 Hz. For all bouts, the mean fluorescence for 5 min before the first lick was calculated and subtracted from the entire session. The licks from the lickometer were simultaneously recorded. The area under the curve (AUC) was quantified by integrating the baseline-subtracted fluorescence signals for 30 sec after the start of the bout. For FIG. 10D, the data were quantified as ΔF/F change between 1 sec prior to, and at the first lick (0 sec). For IG infusion experiments (FIG. 4E), AUC was quantified during the 5-min of infusion.

Test [2] relates to Pre-LC^PDYN-stimulated animals. Kind of test: Preference assay (appetite specificity) under photostimulation of pre-LC^PDYN neurons. As to conditions: photostimulated animals; 0.5 M NaCl+30 μM amiloride; FIG. 7C. The test is classed as in vivo, mice. The method, then:
(§1) For appetite specificity assay (FIG. 7C), three different solutions were presented to animals during the same session, and their preference was measured as a lick number. For each trial, 20 sec of photostimulation was delivered to the animal with an inter-trial-interval of 60 secs. Water, 0.5 M KCl, 0.5 M NaCl, or 0.5 M NaCl+30 μM amiloride was used for preference assay. For sodium consumption assay (FIGS. 1E, 1G, and 1H), animals were given ad libitum access to 0.5 M NaCl, water or an empty spout for either 7.5 or 30 min.

The next test deals with dBNST→pre-LC neurons. In words: Optical recording of calcium responses of dBNST→pre-LC neurons. Conditions: sodium-depleted conditions; FIG. 5F. The test is classed as in vivo, mice. How it is done:
For all photometry assays, animals were acclimatized for 10-15 min in the chamber before stimuli were presented. Bulk fluorescence signals were collected using fibre photometry as previously described. Briefly, data were extracted and subjected to a low-pass filter at 1.8 Hz. A linear function was used to scale up the 405-nm channel signal to the 490-nm channel signal to obtain the fitted 405-nm signal. The resultant ΔF/F was calculated as (raw 490 nm signal−fitted 405 nm signal)/(fitted 405 nm signal). ΔF/F was then time-binned by a factor of 2.5 times the sampling frequency and down-sampled to 10 Hz. For all bouts, the mean fluorescence for 5 min before the first lick was calculated and subtracted from the entire session. The licks from the lickometer were simultaneously recorded. The area under the curve (AUC) was quantified by integrating the baseline-subtracted fluorescence signals for 30 sec after the start of the bout. For FIG. 10D, the data were quantified as ΔF/F change between 1 sec prior to, and at the first lick (0 sec). For IG infusion experiments (FIG. 4E), AUC was quantified during the 5-min of infusion.
To label the dBNST→pre-LC circuit, 100 nl of CAV-Cre was injected into the pre-LC followed by the injection of AAV5-DIO-mCherry or AAV1-flex-GCaMP6S into the dBNST. These animals were used for experiments at least two weeks after the injection.

Test [3] in a line: Intragastric infusion and subsequent ingestive behavior. As to conditions: sodium-depleted mice. The test is classed as in vivo. The method, then: In FIG. 4B, 0.5 M NaCl, deionized water, or glucose solution (5 M) was infused via an intragastric catheter. Solutions were delivered at 0.1 ml/min for 5 min (water and sodium) or 10 min (food) using an infusion syringe pump (NE-300, New Era Pump Systems Inc). 10 min after gastric infusion, animals were given access to nutrients and their consumption was quantified for 10 min (for water and 0.5 M NaCl), or 30 min (for normal chow). Either air infusion (for water), or water infusion (for sodium and food) was used as a control stimulus. In FIG. 4D, either 0.15 M NaCl, water, or air was infused at a rate of 0.1 ml/min while recording the neural activity by photometry. For control, oral ingestion (FIG. 4C), the same set of animals were given access to 0.15 M NaCl.

The subject of test [4] is pre-LC^PDYN neurons expressing hM4Di. Kind of test: Slice electrophysiology, chemogenetic (hM4Di) inhibition by CNO. Conditions: AAV-DIO-hM4Di-mCherry; 10 μM CNO puffed 10 sec; 2 mice; FIG. 8E. Type of test: cell-based.
Method: 250-μm coronal slices were obtained using a vibratome (VT-1000s, Leica) in ice-cold sucrose-aCSF (artificial cerebrospinal fluid) solution (Sucrose 213, KCl 2.5, NaH2PO4 1.2, NaHCO3 25, glucose 10, MgSO4 7, CaCl2 1, in mM at pH 7.3), and then incubated in HEPES-holding aCSF (NaCl 92, KCl 2.5, NaH2PO4 1.2, NaHCO3 30, HEPES 20, glucose 25, Na-ascorbate 5, thiourea 2, Na-pyruvate 3, MgSO4 2, CaCl2 2, in mM at pH 7.3-7.4). Slices were recovered at 34.5° C. for 45 min and then held at room temperature until use.
For patch-clamp recording, slices were placed in a recording chamber perfused with aCSF (NaCl 124, KCl 2.5, NaH2PO4 1.2, NaHCO3 25, glucose 10, MgSO4 1, CaCl2 2, in mM, at pH 7.3) on an upright microscope (Examiner.D1, Zeiss). Whole-cell recordings were achieved using glass pipettes (5-8 MΩ) filled with intracellular solution (for DREADD and iC++ experiments, K-gluconate 145, NaCl 2, KCl 4, HEPES 10, EGTA 0.2, Mg-ATP 4, Na-GTP 0.3; for GABAergic postsynaptic currents, CsCl 145, NaCl 2, HEPES 10, EGTA 0.2, QX-314 bromide 5, Mg-ATP 4, Na-GTP 0.3, in mM at pH 7.25; for glutamatergic postsynaptic currents, Cs(CH3)SO3 145, NaCl 2, HEPES 10, EGTA 0.2, QX-314 bromide 5, Mg-ATP 4, Na-GTP 0.3, in mM, at pH 7.25). Electrical signals were filtered at 3 k Hz with Axon MultiClamp 700B (Molecular Devices) and collected at 20 kHz with Axon Digidata 1550A (Molecular Devices). […]
For test [5], the system named is pre-LC^PDYN neurons. In words: Chemogenetic manipulation, sodium and water consumption. The test is classed as in vivo, mice. As to conditions: CNO 10 mg/kg intraperitoneal.
Source text: For ChR2 photostimulation. 473 nm laser pulses (20 ms, 20 Hz) were delivered via an optic cable (MFP-FC-ZF, Doric Lenses) using a pulse generator (Sapphire 9200 from Quantum composers or SYS-A310 from WPI). The laser intensity was maintained at 5-10 mW at the tip of the fiber. Unless otherwise noted, photostimulation was delivered for 1 s at 3 s intervals throughout the behavior session. For iC++ photoinhibition, 473 nm laser was continuously turned on throughout the session at 3 mW at the tip of the fiber. For chemogenetic manipulation (FIGS. 8E-H), CNO (Sigma, 10 mg/kg) or vehicle (water) was administered intraperitoneal 20 min before the sodium consumption experiment.
To induce sodium appetite, animals were injected with furosemide (Sigma) at a dose of 50 mg/kg body weight. Low sodium diet (TD. 90228, ENVIGO) was provided for 2 days after the injection of furosemide. For water-restriction experiments, animals were kept in their home cage without water, and were provided with 1 mL of water daily. For food restriction experiments, animals were deprived of food up to 24 hrs with normal water provided. All assays were performed in a custom gustometer (Dialog Instruments) or Biodaq monitoring system (Research Diets Inc). All sodium-depleted animals were trained in a gustometer before experiments. Animals which licked at least 150 licks during the 30-min session were used for further behavioral assays. After every sodium-depletion round, animals were recovered for at least 4 days with the normal diet.
as §1

`N=C(N)NC(=O)c1nc(Cl)c(N)nc1N` [amiloride, reference compound]: the “NaCl-induced suppression of pre-LC^PDYN neurons with amiloride” value with pre-LC^PDYN neurons [1] (sodium-depleted animals, 0.5 M NaCl+0.1 mM amiloride, FIG. 3E) is recorded as “fully abolished; also recorded: eliminated inhibition”. Also, the “NaCl consumption in the presence of amiloride” value in test [2] is “reduced”. In the test with dBNST→pre-LC neurons, the “responses of dBNST→pre-LC neurons upon NaCl intake with amiloride” value was “strongly inhibited”.
As to `[Cl-].[Na+]` [NaCl], the “pre-LC^PDYN neuron activity, low concentration of NaCl” value in the test with pre-LC^PDYN neurons [1] (0.06 M NaCl, FIG. 10B) was “exhibited inhibitory effects”. In addition, in the test with pre-LC^PDYN neurons [1] (NaCl intake for 1 sec, FIG. 3F), the “pre-LC^PDYN neuron activity after brief NaCl intake” value was “robust suppression for several minutes; also recorded: induced persistent suppression”. Moreover, the “neural activity of pre-LC^PDYN neurons, IG infusion of NaCl” value in the test on pre-LC^PDYN neurons [1] (intragastric infusion, 0.15 M NaCl, 0.1 ml/min, FIGS. 4D and 4E) is “no inhibitory effect; also recorded: not affected”. Besides, the “neural activity of pre-LC^PDYN neurons, oral NaCl consumption” value in the test on pre-LC^PDYN neurons [1] (oral, 0.15 M NaCl, FIGS. 4C and 4E) is reported as “drastically reduced”. For the same molecule, in test [3] (IG 0.5 M NaCl, 0.1 ml/min for 5 min, FIG. 4B left), the “subsequent sodium ingestion after gastric preloading of NaCl” value is “did not affect”. The “appetite reduction after a long period of IG infusion” value in test [3] (IG NaCl, after 2 hrs) is listed as 41.3±6.0%. Also, the “sodium appetite after oral NaCl contact” value in test [3] (oral, FIG. 4B left) is on record as “quickly quenched the appetite”.
Take `C[N+]1([O-])CCN(C2=Nc3cc(Cl)ccc3Nc3ccccc32)CC1` [CNO, clozapine N-oxide]: the “pre-LC^PDYN neurons inhibited by CNO” value in test [4] is given as 13 out of 14. In addition, in the test with pre-LC^PDYN neurons [5] (AAV-DIO-mCherry injected animals, FIG. 8H), the “thirst or sodium appetite in control animals” value is “did not affect thirst or sodium appetite”. Further, the “thirst under chemogenetic inhibition” value in the test with pre-LC^PDYN neurons [5] (hM4Di, FIG. 8G) is “did not affect thirst”. Moreover, the “sodium intake under chemogenetic inhibition” value with pre-LC^PDYN neurons [5] (hM4Di, sodium-depleted animals, FIG. 8G) is “reduced sodium intake”.
Regarding `[Cl-].[K+]` [KCl], in the test with pre-LC^PDYN neurons [1] (sodium-depleted animals, 0.5 M KCl, FIG. 3D), the “pre-LC^PDYN neuron activity upon ingestion of KCl” value is given as “no suppression was observed; also recorded: did not affect”.
